Counter-ions that a name gives are not always drawn.
Key:
Sprague-Dawley (SD) rats = test: Inhibition of GH secretion using Sprague-Dawley rats; format: in vivo, rat; settings: male SD rats, 3 mg/kg intraperitoneally
Description: Male rats of SD strain were divided into the compound treatment group (n=5) and the control group (n=4). The rats in the compound treatment group were administered intraperitoneally with 0.5% methylcellulose saline solution containing the compound of Example 5 in the concentration of 3 mg/kg/5 ml, and the animals of the control group were administered intraperitoneally with 5 ml/kg of 0.5% methylcellulose saline solution. Four hours after administration, the rats were decapitated without anesthesia and whole blood was collected. The aliquots of 1 ml each of the plasma were obtained from the blood by centrifugation at 2,500 rpm at 4° C. for 30 minutes and stored at −20° C. Plasma GH concentrations were determined by RIA using the rat GH [ I] assay system (Amersham).

SD rats = test: Insulin secretion inhibition study using SD rats; format: in vivo, rat
Description: In order to study the inhibitory effect of the compound of Example 5 on the insulin secretion after the stimulation by glucose, blood was withdrawn at various time intervals after the simultaneous intravenous administration of the compound of Example 5 and glucose. Serum insulin concentrations were determined by RIA.
Male rats of SD strain (8 weeks of age, n=3) were weighed and anesthetized by the intraperitoneal administration of 50 mg/kg of pentobarbital. As blood clotting inhibitor 30 mg of EDTA was dissolved in 300 μl of 50,000 units/ml Trasylol (Bayer) solution, and the solution was placed into Eppendorf blood collecting tubes each in quantity of […]. After fixing the rat on the rat fixing apparatus, the unilateral jugular vein was exposed and 100 μl of the blood was withdrawn from the vein by using a 25G injection needle. The test solution for the control group [without glucose] was saline containing 5% propylene glycol and 30% hydroxypropyl-β-cyclodextrin. The test solution for the control group [with glucose] was saline containing 5% propylene glycol, 30% hydroxypropyl-β-cyclodextrin, and 300 mg/kg/ml of glucose. […]
Plasma insulin concentrations were determined by RIA using the rat insulin [125I] assay system (Amersham). […] The radioactivity of the sediment was measured by gamma counter. […]

SMILES: NCc1cccc(C2OC(CC(=O)NCc3ccccc3F)C(=O)N(Cc3ccc(-c4ccccc4)cc3)c3ccc(Cl)cc32)c1 (stereo not drawn) [Example 5, 3,5-Trans-N-(2-fluorobenzyl)-5-(3-aminomethylphenyl)-1-(4-biphenylmethyl)-7-chloro-2-oxo-1,2,3,5-tetrahydro-4,1-benzoxazepine-3-acetamide•monohydrochloride]
- Plasma GH concentrations mean ± SD (Sprague-Dawley (SD) rats; four hours after administration, n = 5): 11.2 ± 6.5 ng/mL
- Plasma GH concentration versus control (Sprague-Dawley (SD) rats; p<0.05): declined significantly
- Elevation of the plasma insulin concentration after glucose (SD rats; intravenous 0.003, 0.03, 0.3 or 3 mg/kg with glucose, male SD rats): dose-dependently inhibited
- Dosage which inhibited the elevation of insulin concentration by 50% (SD rats; simultaneous intravenous administration with glucose, anesthetized male SD rats): about 0.03 mg/kg
